How the values were obtained:
Enterobacter aerogenes = experiment: Expected efficacy of anti-bacterial agents against various bacteria (Tables 5 and 6); conditions: Gram: neg
Mycoplasma pneumoniae = experiment: as above; conditions: Gram: n/a
Campylobacter jejuni = experiment: as above; conditions: Gram: neg
Enterococcus faecium = experiment: as above; conditions: Gram: pos
Shigella flexneri = experiment: as above; conditions: Gram: neg
[1] = test system: Viridans group streptococci; experiment: as above; conditions: Gram: pos
Enterobacter cloacae = experiment: as above; conditions: Gram: neg
Bacteroides fragilis = experiment: as above; conditions: Gram: anaer
Klebsiella oxytoca = experiment: as above; conditions: Gram: neg
Klebsiella pneumoniae = experiment: as above; conditions: Gram: neg
Acinetobacter lwoffii = experiment: as above; conditions: Gram: neg
Enterococcus faecalis = experiment: as above; conditions: Gram: pos
Pseudomonas aeruginosa = experiment: as above; conditions: Gram: neg
[2] = test system: Methicillin resistant staph aureus (MRSA); experiment: as above; conditions: Gram: pos
Clostridium perfringens = conditions: expected efficacy; Clostridium perfringens; Gram: anaer
Clostridium difficile = experiment: Expected efficacy of anti-bacterial agents against various bacteria (Tables 5 and 6); conditions: Gram: anaer
Chlamydia psittaci = conditions: expected efficacy; Chlamydia psittaci; Gram: n/a
Moraxella catarrhalis = experiment: Expected efficacy of anti-bacterial agents against various bacteria (Tables 5 and 6); conditions: Gram: neg
Citrobacter freundii = experiment: as above; conditions: Gram: neg
Shigella dysenteriae = experiment: as above; conditions: Gram: neg
Proteus vulgaris = experiment: as above; conditions: Gram: neg
[3] = test system: Acinetobacter calcoaceticus; experiment: as above; conditions: Gram: neg
Shigella sonnei = experiment: as above; conditions: Gram: neg
Neisseria meningitidis = experiment: as above; conditions: Gram: neg
Escherichia coli = experiment: as above; conditions: Gram: neg
Streptococcus pyogenes = experiment: as above; conditions: Gram: pos
Chlamydia trachomatis = experiment: as above; conditions: Gram: n/a
[4] = test system: Staphylococcus aureus (MSSA); experiment: as above; conditions: Gram: pos
Neisseria gonorrhoeae = experiment: as above; conditions: Gram: neg
Legionella pneumophila = conditions: expected efficacy; Legionella pneumophila; Gram: neg
Haemophilus ducreyi = experiment: Expected efficacy of anti-bacterial agents against various bacteria (Tables 5 and 6); conditions: Gram: neg
Streptococcus agalactiae = experiment: as above; conditions: Gram: pos
Pseudomonas fluorescens = experiment: as above; conditions: Gram: neg
Peptostreptococcus = experiment: as above; conditions: Gram: pos
Chlamydia pneumoniae = experiment: as above; conditions: Gram: n/a
Shigella boydii = experiment: as above; conditions: Gram: neg
Corynebacterium jeikeium = experiment: as above; conditions: Gram: pos
[5] = test system: Klebsiella (Calymmatobacterium) granulomatis; experiment: as above; conditions: Gram: neg
Enterobacter sakazakii = experiment: as above; conditions: Gram: neg
Diphtheroids = experiment: as above; conditions: Gram: pos
Acinetobacter baumannii = experiment: as above; conditions: Gram: neg
Streptococcus pneumoniae = experiment: as above; conditions: Gram: pos
Vibrio cholerae = experiment: as above; conditions: Gram: neg
[6] = test system: Staphylococcus epidermidis; experiment: as above; conditions: Gram: pos
Proteus mirabilis = experiment: as above; conditions: Gram: neg
Bordetella pertussis = experiment: as above; conditions: Gram: neg
Citrobacter diversus = experiment: as above; conditions: Gram: neg
Yersinia pestis = conditions: expected efficacy; Yersinia pestis; Gram: neg
Serratia marcescens = experiment: Expected efficacy of anti-bacterial agents against various bacteria (Tables 5 and 6); conditions: Gram: neg
[7] = test system: Corynebacterium urealyticum; experiment: as above; conditions: Gram: pos
Haemophilus influenzae = experiment: as above; conditions: Gram: neg
Bartonella bacilliformis = experiment: as above; conditions: Gram: neg
Morganella morganii = experiment: as above; conditions: Gram: neg
Providencia stuartii = experiment: as above; conditions: Gram: neg
Providencia rettgeri = experiment: as above; conditions: Gram: neg
Brucella species = conditions: expected efficacy; Brucella species; Gram: neg
Francisella tularensis = conditions: expected efficacy; Francisella tularensis; Gram: neg
Rickettsiae = conditions: expected efficacy; Rickettsiae; Gram: neg
Candida species = experiment: Expected efficacy of anti-fungal agents against various fungi (Table 4)
[8] = test system: Haemophilus parainfluenzae; experiment: Expected efficacy of anti-bacterial agents against various bacteria (Tables 5 and 6); conditions: Gram: neg
Salmonella typhi = experiment: as above; conditions: Gram: neg

In the case of `NC[C@H]1O[C@H](O[C@H]2[C@H](O)[C@@H](O[C@H]3O[C@H](CO)[C@@H](O)[C@H](N)[C@H]3O)[C@H](N)C[C@@H]2N)[C@H](N)C[C@@H]1O` [Tobramycin], the “Efficacy of various antibiotic agents” value (Enterobacter aerogenes) was “yes”, the “Efficacy of various antibiotic agents” value (Mycoplasma pneumoniae) was “no” and the “Efficacy of various antibiotic agents” value (Campylobacter jejuni) was “yes”. For the same compound, the “Efficacy of various antibiotic agents” value (Enterococcus faecium) was “no”, the “Efficacy of various antibiotic agents” value (Shigella flexneri) was “yes” and the “Efficacy of various antibiotic agents” value [1] was “no”. For the same compound, the “Efficacy of various antibiotic agents” value (Enterobacter cloacae) was “yes”, the “Efficacy of various antibiotic agents” value (Bacteroides fragilis) was “no” and the “Efficacy of various antibiotic agents” value (Klebsiella oxytoca) was “yes”. For the same compound, the “Efficacy of various antibiotic agents” value (Klebsiella pneumoniae) was “yes”, the “Efficacy of various antibiotic agents” value (Acinetobacter lwoffii) was “no” and the “Efficacy of various antibiotic agents” value (Enterococcus faecalis) was “no”. The “Efficacy of various antibiotic agents” value (Pseudomonas aeruginosa) was “yes”, the “Efficacy of various antibiotic agents” value [2] was “no” and the “Efficacy of various antibiotic agents” value (Clostridium perfringens) was “no”. The “Efficacy of various antibiotic agents” value (Clostridium difficile) was “no”, the “Efficacy of various antibiotic agents” value (Chlamydia psittaci) was “no” and the “Efficacy of various antibiotic agents” value (Moraxella catarrhalis) was “yes”. For the same compound, the “Efficacy of various antibiotic agents” value (Citrobacter freundii) was “yes”, the “Efficacy of various antibiotic agents” value (Shigella dysenteriae) was “yes” and the “Efficacy of various antibiotic agents” value (Proteus vulgaris) was “yes”. The “Efficacy of various antibiotic agents” value [3] was “no”, the “Efficacy of various antibiotic agents” value (Shigella sonnei) was “yes” and the “Efficacy of various antibiotic agents” value (Neisseria meningitidis) was “no”. For the same compound, the “Efficacy of various antibiotic agents” value (Escherichia coli) was “yes”, the “Efficacy of various antibiotic agents” value (Streptococcus pyogenes) was “no” and the “Efficacy of various antibiotic agents” value (Chlamydia trachomatis) was “no”. The “Efficacy of various antibiotic agents” value [4] was “no”, the “Efficacy of various antibiotic agents” value (Neisseria gonorrhoeae) was “no” and the “Efficacy of various antibiotic agents” value (Legionella pneumophila) was “no”. For the same compound, the “Efficacy of various antibiotic agents” value (Haemophilus ducreyi) was “yes”, the “Efficacy of various antibiotic agents” value (Streptococcus agalactiae) was “no” and the “Efficacy of various antibiotic agents” value (Pseudomonas fluorescens) was “yes”. For the same compound, the “Efficacy of various antibiotic agents” value (Peptostreptococcus) was “no”, the “Efficacy of various antibiotic agents” value (Chlamydia pneumoniae) was “no” and the “Efficacy of various antibiotic agents” value (Shigella boydii) was “yes”. The “Efficacy of various antibiotic agents” value (Corynebacterium jeikeium) was “no”, the “Efficacy of various antibiotic agents” value [5] was “yes” and the “Efficacy of various antibiotic agents” value (Enterobacter sakazakii) was “yes”. For the same compound, the “Efficacy of various antibiotic agents” value (Diphtheroids) was “no”, the “Efficacy of various antibiotic agents” value (Acinetobacter baumannii) was “no” and the “Efficacy of various antibiotic agents” value (Streptococcus pneumoniae) was “no”. For the same compound, the “Efficacy of various antibiotic agents” value (Vibrio cholerae) was “no”, the “Efficacy of various antibiotic agents” value [6] was “no” and the “Efficacy of various antibiotic agents” value (Proteus mirabilis) was “yes”. The “Efficacy of various antibiotic agents” value (Bordetella pertussis) was “no”, the “Efficacy of various antibiotic agents” value (Citrobacter diversus) was “yes” and the “Efficacy of various antibiotic agents” value (Yersinia pestis) was “yes”. The “Efficacy of various antibiotic agents” value (Serratia marcescens) was “yes”, the “Efficacy of various antibiotic agents” value [7] was “no” and the “Efficacy of various antibiotic agents” value (Haemophilus influenzae) was “yes”.
In the case of `CC[C@H]1OC(=O)[C@H](C)[C@@H](O[C@H]2C[C@@](C)(OC)[C@@H](O)[C@H](C)O2)[C@H](C)[C@@H](O[C@@H]2O[C@H](C)C[C@H](N(C)C)[C@H]2O)[C@](C)(O)C[C@@H](C)CN(C)[C@H](C)[C@@H](O)[C@]1(C)O` [Azithromycin], the “Efficacy of various antibiotic agents” value (Enterobacter aerogenes) was “no”, the “Efficacy of various antibiotic agents” value (Mycoplasma pneumoniae) was “yes” and the “Efficacy of various antibiotic agents” value (Campylobacter jejuni) was “yes”. The “Efficacy of various antibiotic agents” value (Enterococcus faecium) was “no”, the “Efficacy of various antibiotic agents” value (Enterobacter cloacae) was “no” and the “Efficacy of various antibiotic agents” value (Bacteroides fragilis) was “no”. For the same compound, the “Efficacy of various antibiotic agents” value (Klebsiella oxytoca) was “no”, the “Efficacy of various antibiotic agents” value (Klebsiella pneumoniae) was “no” and the “Efficacy of various antibiotic agents” value (Acinetobacter lwoffii) was “no”. For the same compound, the “Efficacy of various antibiotic agents” value (Enterococcus faecalis) was “no”, the “Efficacy of various antibiotic agents” value (Pseudomonas aeruginosa) was “no” and the “Efficacy of various antibiotic agents” value [2] was “no”. The “Efficacy of various antibiotic agents” value (Clostridium perfringens) was “no”, the “Efficacy of various antibiotic agents” value (Clostridium difficile) was “no” and the “Efficacy of various antibiotic agents” value (Chlamydia psittaci) was “yes”. The “Efficacy of various antibiotic agents” value (Moraxella catarrhalis) was “yes”, the “Efficacy of various antibiotic agents” value (Citrobacter freundii) was “no” and the “Efficacy of various antibiotic agents” value (Proteus vulgaris) was “no”. The “Efficacy of various antibiotic agents” value [3] was “no”, the “Efficacy of various antibiotic agents” value (Bartonella bacilliformis) was “yes” and the “Efficacy of various antibiotic agents” value (Neisseria meningitidis) was “yes”. For the same compound, the “Efficacy of various antibiotic agents” value (Morganella morganii) was “no”, the “Efficacy of various antibiotic agents” value (Escherichia coli) was “no” and the “Efficacy of various antibiotic agents” value (Streptococcus pyogenes) was “yes”. For the same compound, the “Efficacy of various antibiotic agents” value (Chlamydia trachomatis) was “yes”, the “Efficacy of various antibiotic agents” value [4] was “yes” and the “Efficacy of various antibiotic agents” value (Legionella pneumophila) was “yes”. The “Efficacy of various antibiotic agents” value (Providencia stuartii) was “no”, the “Efficacy of various antibiotic agents” value (Providencia rettgeri) was “no” and the “Efficacy of various antibiotic agents” value (Streptococcus agalactiae) was “yes”. The “Efficacy of various antibiotic agents” value (Pseudomonas fluorescens) was “no”, the “Efficacy of various antibiotic agents” value (Brucella species) was “no” and the “Efficacy of various antibiotic agents” value (Chlamydia pneumoniae) was “yes”. For the same compound, the “Efficacy of various antibiotic agents” value (Francisella tularensis) was “no”, the “Efficacy of various antibiotic agents” value (Rickettsiae) was “yes” and the “Efficacy of various antibiotic agents” value (Corynebacterium jeikeium) was “no”. The “Efficacy of various antibiotic agents” value [5] was “no”, the “Efficacy of various antibiotic agents” value (Enterobacter sakazakii) was “no” and the “Efficacy of various antibiotic agents” value (Acinetobacter baumannii) was “no”. The “Efficacy of various antibiotic agents” value (Streptococcus pneumoniae) was “yes”, the “Efficacy of various antibiotic agents” value (Vibrio cholerae) was “yes” and the “Efficacy of various antibiotic agents” value [6] was “yes”. For the same compound, the “Efficacy of various antibiotic agents” value (Proteus mirabilis) was “no”, the “Efficacy of various antibiotic agents” value (Bordetella pertussis) was “yes” and the “Efficacy of various antibiotic agents” value (Citrobacter diversus) was “no”. The “Efficacy of various antibiotic agents” value (Serratia marcescens) was “no” and the “Efficacy of various antibiotic agents” value (Haemophilus influenzae) was “yes”.
With `C[C@@H]1[C@H](O)[C@@H](C)/C=C/C=C/CC/C=C/C=C/C=C/C=C/C(O[C@H]2O[C@H](C)[C@@H](O)[C@H](N)[C@@H]2O)CC2O[C@](O)(CC(O)C(O)CCC(O)CC(O)CC(O)CC(=O)O[C@H]1C)CC(O)C2C(=O)O` (stereo partly shown) [Nystatin] the “Efficacy of various antifungal agents” value (Candida species) was “yes”.
For `O=C(O)c1cn(C2CC2)c2cc(N3CCNCC3)c(F)cc2c1=O` [Ciprofloxacin], the “Efficacy of various antibiotic agents” value (Enterobacter aerogenes) was “yes”, the “Efficacy of various antibiotic agents” value (Campylobacter jejuni) was “yes” and the “Efficacy of various antibiotic agents” value [8] was “yes”. The “Efficacy of various antibiotic agents” value (Enterococcus faecium) was “no”, the “Efficacy of various antibiotic agents” value (Shigella flexneri) was “yes” and the “Efficacy of various antibiotic agents” value (Bacteroides fragilis) was “no”. For the same compound, the “Efficacy of various antibiotic agents” value (Klebsiella oxytoca) was “yes”, the “Efficacy of various antibiotic agents” value (Klebsiella pneumoniae) was “yes” and the “Efficacy of various antibiotic agents” value (Pseudomonas aeruginosa) was “yes”. For the same compound, the “Efficacy of various antibiotic agents” value [2] was “no”, the “Efficacy of various antibiotic agents” value (Moraxella catarrhalis) was “yes” and the “Efficacy of various antibiotic agents” value (Citrobacter freundii) was “yes”. The “Efficacy of various antibiotic agents” value (Shigella dysenteriae) was “yes”, the “Efficacy of various antibiotic agents” value (Proteus vulgaris) was “yes” and the “Efficacy of various antibiotic agents” value (Shigella sonnei) was “yes”. The “Efficacy of various antibiotic agents” value (Bartonella bacilliformis) was “yes”, the “Efficacy of various antibiotic agents” value (Neisseria meningitidis) was “yes” and the “Efficacy of various antibiotic agents” value (Morganella morganii) was “yes”. For the same compound, the “Efficacy of various antibiotic agents” value (Escherichia coli) was “yes”, the “Efficacy of various antibiotic agents” value (Neisseria gonorrhoeae) was “yes” and the “Efficacy of various antibiotic agents” value (Legionella pneumophila) was “yes”. The “Efficacy of various antibiotic agents” value (Providencia stuartii) was “yes”, the “Efficacy of various antibiotic agents” value (Providencia rettgeri) was “yes” and the “Efficacy of various antibiotic agents” value (Salmonella typhi) was “yes”. The “Efficacy of various antibiotic agents” value (Pseudomonas fluorescens) was “yes”, the “Efficacy of various antibiotic agents” value (Chlamydia pneumoniae) was “yes” and the “Efficacy of various antibiotic agents” value (Shigella boydii) was “yes”. The “Efficacy of various antibiotic agents” value (Francisella tularensis) was “yes”, the “Efficacy of various antibiotic agents” value (Rickettsiae) was “yes” and the “Efficacy of various antibiotic agents” value (Corynebacterium jeikeium) was “no”. The “Efficacy of various antibiotic agents” value (Vibrio cholerae) was “yes”, the “Efficacy of various antibiotic agents” value [6] was “yes” and the “Efficacy of various antibiotic agents” value (Proteus mirabilis) was “yes”. The “Efficacy of various antibiotic agents” value (Citrobacter diversus) was “yes”, the “Efficacy of various antibiotic agents” value (Yersinia pestis) was “yes” and the “Efficacy of various antibiotic agents” value (Serratia marcescens) was “yes”. For the same compound, the “Efficacy of various antibiotic agents” value (Haemophilus influenzae) was “yes”.

Source: patent US20190255086A1, “Compositions and Methods for Treating an Infection” (CMPD Licensing, LLC, priority 2015, published 2019)
